Patent US6638973B2, “Taxane formulations” (FSU Research Foundation, Inc., priority 2000, dated 2003)
Like-named read-outs stand apart in the source and are kept apart here.

Test system: HCT116 cells
Test: In vitro cytotoxicity measured by the cell colony formation assay
Type: cell-based
Settings: colonies counted after 7 days, read-out: IN VITRO ID 50 (nm) HCT116
In short: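 Colony-forming survival was scored 7 days after a 72 h, 37 °C compound exposure followed by washout into fresh medium.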

[1] = HCT116 colony formation, 72 h drug incubation, Example 10, C-10 ester/C-7 hydroxy taxanes
[2] = HCT116 colony formation, 72 h drug incubation, Example 5, C-7 ester/C-10 hydroxy taxanes

In the case of `CCCC(=O)O[C@H]1C(=O)[C@@]2(C)C([C@H](OC(=O)c3ccccc3)[C@]3(O)C[C@H](OC(=O)[C@H](O)[C@@H](NC(=O)C=C(C)C)c4cccs4)C(C)=C1C3(C)C)[C@]1(OC(C)=O)CO[C@@H]1C[C@@H]2O` (some centres unmarked) [Compound 4344], the IC50 [1] is reported as < 1 nM.
For `CCOC(=O)O[C@H]1C(=O)[C@@]2(C)C([C@H](OC(=O)c3ccccc3)[C@]3(O)C[C@H](OC(=O)[C@H](O)[C@@H](NC(=O)OC(C)(C)C)c4ccoc4)C(C)=C1C3(C)C)[C@]1(OC(C)=O)CO[C@@H]1C[C@@H]2O` (some centres unmarked) [Compound 1838], the IC50 (HCT116 cells, 72 h incubation with drug, ID50 = drug concentration producing 50% inhibition of colony formation) was < 1 nM.
For `CCC(=O)O[C@H]1C(=O)[C@@]2(C)C([C@H](OC(=O)c3ccccc3)[C@]3(O)C[C@H](OC(=O)[C@H](O)[C@H](C=C(C)C)NC(=O)c4ccccc4)C(C)=C1C3(C)C)[C@]1(OC(C)=O)CO[C@@H]1C[C@@H]2O` (some centres unmarked) [Compound 0625], the IC50 [1] was < 1 nM.
With `CC(=O)O[C@@]12CO[C@@H]1C[C@H](OC(=O)C(C)C)[C@@]1(C)C(=O)[C@H](O)C3=C(C)[C@@H](OC(=O)[C@H](O)[C@@H](NC(=O)OC(C)(C)C)c4cccs4)C[C@@](O)([C@@H](OC(=O)c4ccccc4)C12)C3(C)C` (some centres unmarked) [Compound 6333] the IC50 [2] was < 1 nM.
With `CCC(=O)O[C@H]1C[C@H]2OC[C@@]2(OC(C)=O)C2[C@H](OC(=O)c3ccccc3)[C@]3(O)C[C@H](OC(=O)[C@H](O)[C@@H](NC(=O)OC(C)(C)CC)c4ccco4)C(C)=C([C@@H](O)C(=O)[C@@]21C)C3(C)C` (some centres unmarked) [Compound 6212] the IC50 [2] was < 1 nM.
For `CC(=O)OC12COC1CC(O)C1(C)C(=O)C(OC(=O)c3ccco3)C3=C(C)C(OC(=O)C(O)C(NC(=O)OC(C)(C)C)C4CCC4)CC(O)(C(OC(=O)c4ccccc4)C21)C3(C)C` (centres unmarked) [Compound 2199], the IC50 [1] was < 10 nM.
In the case of `C/C=C/C(=O)N[C@@H](c1ccsc1)[C@@H](O)C(=O)O[C@H]1C[C@@]2(O)[C@@H](OC(=O)c3ccccc3)C3[C@](C)(C(=O)[C@H](OC(=O)C4CC4)C(=C1C)C2(C)C)[C@@H](O)C[C@H]1OC[C@@]31OC(C)=O` (some centres unmarked) [Compound 5040], the IC50 [1] is reported as < 1 nM.
`CCNC(=O)O[C@H]1C(=O)[C@@]2(C)C([C@H](OC(=O)c3ccccc3)[C@]3(O)C[C@H](OC(=O)[C@H](O)[C@@H](NC(=O)OC(C)(C)C)c4cccnc4)C(C)=C1C3(C)C)[C@]1(OC(C)=O)CO[C@@H]1C[C@@H]2O` (some centres unmarked) [Compound 2616] was tested, and the IC50 (HCT116 cells, colony formation, 72 h incubation with drug, ID50 = drug concentration producing 50% inhibition of colony formation) was 27 nM.
For `CC(=O)OC12COC1CC(O)C1(C)C(=O)C(OC(=O)c3ccco3)C3=C(C)C(OC(=O)C(O)C(NC(=O)OC(C)(C)C)c4ccco4)CC(O)(C(OC(=O)c4ccccc4)C21)C3(C)C` (centres unmarked) [Compound 2142], the IC50 [1] was < 1 nM.
In the case of `CC(=O)O[C@@]12CO[C@@H]1C[C@H](O)[C@@]1(C)C(=O)[C@H](OC(=O)C3CC3)C3=C(C)[C@@H](OC(=O)[C@H](O)[C@@H](NC(=O)c4ccccc4)c4ccc([N+](=O)[O-])cc4)C[C@@](O)([C@@H](OC(=O)c4ccccc4)C12)C3(C)C` (some centres unmarked) [Compound 2869], the IC50 [1] is reported as < 10 nM.
`CCOC(=O)N[C@@H](c1cccs1)[C@@H](O)C(=O)O[C@H]1C[C@@]2(O)[C@@H](OC(=O)c3ccccc3)C3[C@](C)(C(=O)[C@H](O)C(=C1C)C2(C)C)[C@@H](OC(=O)CC)C[C@H]1OC[C@@]31OC(C)=O` (some centres unmarked) [Compound 4044] was tested, and the IC50 [2] was < 1 nM.
`CCOC(=O)N[C@@H](c1cccs1)[C@@H](O)C(=O)O[C@H]1C[C@@]2(O)[C@@H](OC(=O)c3ccccc3)C3[C@](C)(C(=O)[C@H](OC(=O)CC)C(=C1C)C2(C)C)[C@@H](O)C[C@H]1OC[C@@]31OC(C)=O` (some centres unmarked) [Compound 3370] was tested, and the IC50 [1] was < 1 nM.
With `CCC(=O)O[C@H]1C(=O)[C@@]2(C)C([C@H](OC(=O)c3ccccc3)[C@]3(O)C[C@H](OC(=O)[C@H](O)[C@@H](NC(=O)OC(C)(C)C)c4ccco4)C(C)=C1C3(C)C)[C@]1(OC(C)=O)CO[C@@H]1C[C@@H]2O` (some centres unmarked) [Compound 0536] the IC50 [1] was < 1 nM.
With `CCCC(=O)O[C@H]1C(=O)[C@@]2(C)C([C@H](OC(=O)c3ccccc3)[C@]3(O)C[C@H](OC(=O)[C@H](O)[C@@H](NC(=O)OC(C)C)c4cccs4)C(C)=C1C3(C)C)[C@]1(OC(C)=O)CO[C@@H]1C[C@@H]2O` (some centres unmarked) [Compound 3909] the IC50 [1] was < 1 nM.
